Measured values taken from US4022900A, “Compositions containing 1,2,3,4-tetrahydroisoquinolines used as hypotensive agents” (Marion Laboratories, Inc., priority 1972, dated 1977).
Where a name gives a salt, the structure may show the parent alone. Read-outs that look alike come from different tables or passages of the source.

Experiments:
[1] = Acute toxicity (LD50) in the mouse; settings: in vivo; for LD50: Table I, unit, species and route not given; for LD50 at 24 h: ip, read-out: Approximate Acute Toxicity (24 hrs.) In the Mouse, LD50
Procedure: 5-(3,4,5-trimethoxybenzamido)-2-methyl-1,2,3,4-tetrahydroisoquinoline (M-20) in mice has an LD-50 of about 125 to 250 mg/kg intraperitoneally.
(§1) Additional compounds have been tested. The toxicity data for the additional compounds tested, and their identity, is given in the following Table II while the blood pressure lowering activity of the compounds is given in the following Table III. The heading "Example Number" in the tables refers to the working example herein which discloses the compounds and its preparation. The test procedure used for determining the blood pressure lowering activity of the compounds is the same as that previously set forth herein. However, the figures in Table III are expressed as percentage change in blood pressure, rather than in mm of mercury change in blood pressure, as presented in Table I herein.
Approximate Acute Toxicity (24 hrs.)
(a) Suspension in 1% tragacanth
(b) Solution in distilled water
(c) Solubilized with the aid of dilute acid

[2] = test system: systolic blood pressure of deoxycorticosterone acetate hypertensive rats; test: Hypotensive activity in DCA/saline hypertensive rats (systolic blood pressure, tail cuff); format: in vivo, rat (male, CD strain); settings: for Lowering of Blood Pressure in Hypertensive rate in mm's of Hg., 1 hr. / Lowering of Blood Pressure in Hypertensive rate in mm's of Hg., 2 hrs. / Lowering of Blood Pressure in Hypertensive rate in mm's of Hg., 4 hrs. / Lowering of Blood Pressure in Hypertensive rate in mm's of Hg., 24 hrs. / compounds which appear most active from Table I: 50 mg/kg intraperitoneal; for Lowering of Blood Pressure in Hypertensive rate in mm's of Hg., 1 hr. / Lowering of Blood Pressure in Hypertensive rate in mm's of Hg., 2 hrs. / Lowering of Blood Pressure in Hypertensive rate in mm's of Hg., 4 hrs. / Lowering of Blood Pressure in Hypertensive rate in mm's of Hg., 24 hrs.: change vs predrug control, six rats; for compounds which appear most active from Table I: qualitative ranking; for Percent Change in Pressure from Control ± S.E., 1 Hour / Percent Change in Pressure from Control ± S.E., 2 Hours / Percent Change in Pressure from Control ± S.E., 4 Hours / Percent Change in Pressure from Control ± S.E., 24 Hours: 50 mg/kg i.p., systolic pressure, * <0.05 significance (Newman-Keuls)
Procedure: Hypertension was produced in weanling (30-day old) male rats of the CD strain obtained from the Charles River Breeding Laboratories (Wilmington, Mass.) by subcutaneously implanting about the dorsal surface of the neck a pellet of deoxycorticosterone acetate (DCA) containing 10 mg DCA in a mixture of Carbowax 4000 (Union Carbide) and Flexowax C light (Glyco Products). Their drinking water was replaced by a 1% sodium chloride solution, a procedure known to facilitate the development of an experimental hypertension, and they had free access to chow. Systolic blood pressure in the caudal arteries was measured indirectly by a pneumatic pulse transducer and a tail pressure cuff on a Physiograph Four recorder (Narco Bio-Systems, Inc., Houston, Texas) in unanesthetized but restrained rats prewarmed to 40° C., 10-15 minutes prior to the determination. The rats were kept at a temperature of 40° C. for all determinations of systolic pressure in an attempt to minimize variations in blood pressure due to marked changes in arterial tone caused by changes in temperature. Blood pressures were measured at intervals in the DCA-treated rats given saline and in non-treated control rats. After 20 days, the mean systolic pressure in the DCA-treated rats was above 150 mm Hg. Hypertension was regarded as being established in the rats at this stage and they were at intervals, usually beginning with the 30th day after DCA-implant in testing for hypotensive activity. Following a series of control blood pressure readings, a dose of 50 mg/kg of the compound under investigation was administered by intraperitoneal injection either in solution or as a suspension in 1% tragacanth solution to groups of six hypertensive rats. Blood pressures were redetermined at 1, 2, 4 and 24 hour periods following injection. At each interval, the systolic pressure was measured a minimum of five times in each rat and the average value was calculated. Mean values for the group were calculated from the individual average values and compared with their predrug control levels. The statistical significance of the changes produced by the compounds, in the doses employed, was tested by the "t" test as well as by an analysis of variance. The reductions in blood pressure obtained with the indicated representative tetrahydroisoquinoline compounds are shown in Table I. The code number for the compound and the example herein showing its preparation are both given in Table I.
as §1

[3] = solubilized with the aid of dilute acid

Row | SMILES | LD50 [1] | Lowering of Blood Pressure in Hypertensive rate in mm's of Hg., 1 hr. [2] | Lowering of Blood Pressure in Hypertensive rate in mm's of Hg., 2 hrs. [2] | Lowering of Blood Pressure in Hypertensive rate in mm's of Hg., 4 hrs. [2] | Lowering of Blood Pressure in Hypertensive rate in mm's of Hg., 24 hrs. [2] | compounds which appear most active from Table I [2] | LD50 at 24 h ([1]; solution in distilled water) | Percent Change in Pressure from Control ± S.E., 1 Hour [2] | Percent Change in Pressure from Control ± S.E., 2 Hours [2] | Percent Change in Pressure from Control ± S.E., 4 Hours [2] | Percent Change in Pressure from Control ± S.E., 24 Hours [2] | LD50 at 24 h [1, 3] | LD50 at 24 h ([1]; suspension in 1% tragacanth)
1 | CCCN1CCc2c(cccc2NC(=O)c2cc(OC)c(OC)c(OC)c2)C1 [M-49, 5-(3,4,5-Trimethoxybenzamido)-2-n-propyl-1,2,3,4-tetrahydroisoquinoline] | 125 to 250 mg/kg | -31±6 mm's of Hg | -27±6 mm's of Hg | -21±6 mm's of Hg | -17±6 mm's of Hg | most active | – | – | – | – | – | – | –
2 | CN1CCc2c(cccc2NC(=O)c2ccccc2)C1 [M-54, 5-(benzamido)-2-methyl-1,2,3,4-tetrahydroisoquinoline] | 125 to 250 mg/kg | -7±7 mm's of Hg | -14±6 mm's of Hg | -15±6 mm's of Hg | -10±3 mm's of Hg | – | – | – | – | – | – | – | –
3 | COc1cc(C(=O)Nc2cccc3c2CN(C)CC3)cc(OC)c1OC [M-65, 8-(3,4,5-Trimethoxybenzamido)-2-methyl-1,2,3,4-tetrahydroisoquinoline] | 250 to 500 mg/kg | -55±10 mm's of Hg | -44±8 mm's of Hg | -27±3 mm's of Hg | -21±7 mm's of Hg | most active | – | – | – | – | – | – | –
4 | COc1cc(C(=O)Nc2ccc3c(c2)CCN(C)C3)cc(OC)c1OC [M-72, 6-(3,4,5-Trimethoxybenzamido)-2-methyl-1,2,3,4-tetrahydroisoquinoline HCl] | – | – | – | – | – | – | 188 to 250 mg/kg | -21.6 ± 1.7% | -19.4 ± 4.0% | -11.9 ± 3.4% | -3.8 ± 1.3% | – | –
5 | COc1cc(OC)c(C(=O)Nc2cccc3c2CCN(C)C3)cc1OC [M-61, 5-(2,4,5-Trimethoxybenzamido)-2-methyl-1,2,3,4-tetrahydroisoquinoline] | 68 to 125 mg/kg | -15±4 mm's of Hg | -19±5 mm's of Hg | -15±4 mm's of Hg | -6±6 mm's of Hg | – | – | – | – | – | – | – | –
6 | Cc1cccc(C)c1C(=O)Nc1cccc2c1CCN(C)C2 [M-58, 5-(2,6-Dimethylbenzamido)-2-methyl-1,2,3,4-tetrahydroisoquinoline] | – | – | – | – | – | – | – | -6.1 ± 1.7% | -2.4 ± 0.6% | -5.2 ± 1.8% | +2.0 ± 2.1% | 125 to 250 mg/kg | –
7 | CN1CCc2c(cccc2NC(=O)c2ccccc2[N+](=O)[O-])C1 [M-69, 5-(2-Nitrobenzamido)-2-methyl-1,2,3,4-tetrahydroisoquinoline] | – | – | – | – | – | – | – | – | -4.1 ± 3.0% | -3.3 ± 4.0% | -1.0 ± 3.0% | 125 to 250 mg/kg | –
8 | COc1cc(C(=O)Nc2cccc3c2CCNC3)cc(OC)c1OC [M-46, 5-(3,4,5-Trimethoxybenzamido)-1,2,3,4-tetrahydroisoquinoline HCl] | 250 to 500 mg/kg | -26±10 mm's of Hg | -25±7 mm's of Hg | -11±4 mm's of Hg | -18±4 mm's of Hg | – | – | – | – | – | – | – | –
9 | CN1CCc2c(cccc2NC(=O)c2ccccc2Cl)C1 [M-63, 5-(2-Chlorobenzamido)-2-methyl-1,2,3,4-tetrahydroisoquinoline] | 125 to 188 mg/kg | -25±2 mm's of Hg | -36±4 mm's of Hg | -34±4 mm's of Hg | -28±4 mm's of Hg | most active | – | – | – | – | – | – | –
10 | COc1ccc(C(=O)Nc2cccc3c2CCNC3)cc1 [M-44, 5-(4-Methoxybenzamido)-1,2,3,4-tetrahydroisoquinoline HCl] | – | – | – | – | – | – | – | -8.8 ± 4.8% | -6.5 ± 3.7% | -8.3 ± 2.4% | -6.4 ± 1.3% | – | 500 to 1000 mg/kg
11 | CN1CCc2c(cccc2NC(=O)c2ccccc2F)C1 [M-68, 5-(2-Fluorobenzamido)-2-methyl-1,2,3,4-tetrahydroisoquinoline] | 250 to 500 mg/kg | -13±5 mm's of Hg | -10±5 mm's of Hg | -11±4 mm's of Hg | -20±4 mm's of Hg | – | – | – | – | – | – | – | –
12 | COc1ccc(C(=O)Nc2cccc3c2CCN(C)C3)cc1OC [M-55, 5-(3,4-Dimethyoxybenzamido)-2-methyl-1,2,3,4-tetrahydroisoquinoline] | 125 to 250 mg/kg | -32±5 mm's of Hg | -31±5 mm's of Hg | -32±4 mm's of Hg | -20±4 mm's of Hg | most active | – | – | – | – | – | – | –
13 | CCc1cccc(CC)c1C(=O)Nc1cccc2c1CCN(C)C2 [M-66, 5-(2,6-Diethylbenzamido)-2-methyl-1,2,3,4-tetrahydroisoquinoline] | – | – | – | – | – | – | – | -5.7 ± 3.0% | -7.5 ± 4.6% | -6.1 ± 2.8% | -2.1 ± 2.3% | 125 to 250 mg/kg | –
14 | CN1CCc2c(cccc2NC(=O)c2ccccc2I)C1 [M-70, 5-(2-Iodobenzamido)-2-methyl-1,2,3,4-tetrahydroisoquinoline] | – | – | – | – | – | – | – | -6.8 ± 2.1% | -9.9 ± 2.1% | -5.7 ± 1.9% | -0.7 ± 2.9% | < 31 mg/kg | –
15 | CN1CCc2c(cccc2NC(=O)c2ccccc2Br)C1 [M-60, 5-(2-Bromobenzamido)-2-methyl-1,2,3,4-tetrahydroisoquinoline] | 125 to 250 mg/kg | -12±4 mm's of Hg | -10±8 mm's of Hg | -20±3 mm's of Hg | -26±4 mm's of Hg | – | – | – | – | – | – | – | –
16 | CCCN1CCc2c(cccc2NC(=O)c2ccc(OC)cc2)C1 [M-50, 5-(4-methoxybenzamido)-2-n-propyl-1,2,3,4-tetrahydroisoquinoline] | – | – | – | – | – | – | – | -11.3 ± 1.9% | -17.8 ± 1.4% | -10.2 ± 2.8% | -6.2% | 125 to 250 mg/kg | –
